Results on 3 compounds are retold here after patent US8168672B2, “Thioamide derivatives as progesterone receptor modulators” (Wyeth, priority 2004, dated 2012).

For orientation: pEC50 means the negative decadic logarithm of the EC50, by convention in mol/L. One may read the pIC50 as −log10 of the IC50, conventionally taken in molar units.

Data set [1] concerns alkaline phosphatase activity in T47D cells. Put plainly: T47D cytosol alkaline phosphatase assay (progestin/agonist mode). The following applies: Homo sapiens, 24 hours treatment; for Emax: agonist mode, read-out: % Efficacy; for pEC50: T47D, 24 h, test compounds. In kind it is cell-based. As to the method:
5-(4,4-dimethyl-2-thioxo-1,4-dihydro-2H-3,1-benzoxazin-6-yl)-1-methyl-1H-pyrrole-2-carbothioamide (1) and 5-(4,4-dimethyl-2-oxo-1,4-dihydro-2H-3,1-benzoxazin-6-yl)-1-methyl-1H-pyrrole-2-carbothioamide (2) were tested in a T47D cytosol alkaline phosphatase assay (Table 1). The purpose of this functional assay was to identify progestins or antiprogestins by determining the compound's effect on alkaline phosphatase activity in T47D cells.
(i) Culture Medium: • DMEM:F12 (1:1) (GIBCO, BRL) supplemented with 5% (v/v) charcoal stripped fetal bovine serum (not heat-inactivated), 100 U/mL penicillin, 100 μg/mL streptomycin, and 2 mM the GlutaMax™ reagent (GIBCO, BRL).
(ii) Alkaline Phosphatase Assay Buffer: • I. 0.1 M Tris-HCl, pH 9.8, containing 0.2% the Triton™ reagent X-100 • II. 0.1 M Tris-HCl, pH 9.8 containing 4 mM p-nitrophenyl phosphate (Sigma).
(iii) Cell Culture and Treatment: • Frozen T47D cells were thawed in a 37° C. water bath and diluted to 280,000 cells/mL in culture medium. To each well in a 96-well plate (Falcon, Becton Dickinson Labware), 180 μL of diluted cell suspension was added. Twenty μL of reference or test compounds diluted in the culture medium was then added to each well. When testing for progestin antagonist activity, reference antiprogestins or test compounds were added in the presence of 1 nM progesterone. The cells were incubated at 37° C. in a 5% CO2/humidified atmosphere for 24 hours.
(iv) Alkaline Phosphatase Enzyme Assay: • At the end of treatment, the medium was removed from the plate and 50 μL of assay buffer I was added to each well. The plates were shaken in a titer plate shaker for 15 minutes. Then 150 μL of assay buffer II was added to each well. Optical density measurements were taken at 5 minute intervals for 30 minutes at a test wavelength of 405 nm.
(v) Analysis of Results: • Analysis of dose-response data: For reference and test compounds, a dose response curve is generated for dose (X-axis) vs. the rate of enzyme reaction (slope) (Y-axis). Square root-transformed data are used for analysis of variance and nonlinear dose response curve fitting for both agonist and antagonist modes. Huber weighting is used to downweight the effects of outliers. EC50 or IC50 values are calculated from the retransformed values. JMP software (SAS Institute, Inc.) is used for both one-way analysis of variance and non-linear dose response analyses in both single dose and dose response studies.
(vi) Reference Compounds: • Progesterone and trimegestone are reference progestins and RU486 was the reference antiprogestin. All reference compounds are run in full dose response curves and the EC50 or IC50 values calculated.

Data set [2] in a line: Solubility in dimethylsulfoxide (observation during characterisation). In kind it is physicochemical. On the procedure:
A 5-L round-bottomed flask equipped with a mechanical stirrer and a reflux condenser was charged with the isolated solid (16.5 g) and acetone (2700 mL) was added in portions via the condenser while the suspension was heated to reflux. The reflux condenser was replaced with a regular one and acetone was distilled off. After distilling 2130 mL of acetone, the formed slurry was cooled to room temperature, stirred overnight, and filtered on a sintered-glass funnel to give a dark-yellow, crystalline, sandy solid. The filtered solid was dried at 40° C. in vacuo to give 12.5 g (76% recrystallization yield; 38% total yield) of 5-(4,4-dimethyl-2-thioxo-1,4-dihydro-2H-3,1-benzoxazin-6-yl)-1-methyl-1H-pyrrole-2-carbothioamide. LC purity: 95.94%; 1.65% NSP-989; rrt 0.88. LC-MS: 331 (M^+); impurity 297 (NSP-989). Mp: particles of various shapes; small particles melted 210-215° C.; next 218-220° C.; final melt 223-226° C. IR (KBr, cm^−1): 3375, 3269, 3165, 2211, 1624, 1610, 1540, 1526, 1466, 1370, 1294, 1261, 1186, 1114, 1086, 959, 880, 822, 779. ^1H NMR (DMSO-d6, ppm): 12.28 (s, 1H), 9.22 (s, 1H, S═CNH2), 8.97 (s, 1H, S═CNH2), 7.41 (d, 1H, J=7.05 Hz), 7.40 (s, 1H), 7.12 (d, 1H, J=8.85 Hz), 6.72 (d, 1H, J=3.9 Hz), 6.23 (d, 1H, J=3.9 Hz), 3.83 (s, 3H), 1.68 (s, 6H).

For data set [3], the system named is alkaline phosphatase activity in T47D cells. Put plainly: T47D alkaline phosphatase assay (antiprogestin/antagonist mode, in the presence of 1 nM progesterone). In kind it is cell-based. The settings on record: Homo sapiens, reference antiprogestin, three independent experiments (Exp 1-3), read-out: Estimated IC50. On the procedure:
0.1 M Tris-HCl, pH 9.8 containing 4 mM p-nitrophenyl phosphate (Sigma). […] To each well in a 96-well plate (Falcon, Becton Dickinson Labware), 180 μL of diluted cell suspension was added. Twenty μL of reference or test compounds diluted in the culture medium was then added to each well. When testing for progestin antagonist activity, reference antiprogestins or test compounds were added in the presence of 1 nM progesterone. The cells were incubated at 37° C. in a 5% CO2/humidified atmosphere for 24 hours. […] The plates were shaken in a titer plate shaker for 15 minutes. Then 150 μL of assay buffer II was added to each well. […] Square root-transformed data are used for analysis of variance and nonlinear dose response curve fitting for both agonist and antagonist modes. Huber weighting is used to downweight the effects of outliers. EC50 or IC50 values are calculated from the retransformed values.

pEC50, pIC50: −log10 of the molar value. Values joined by “and” are separate entries in the source; they are usually repeats but may differ in a detail not shown here. Equal entries are not always repeated.

Turning to `Cn1c(C(N)=S)ccc1-c1ccc2c(c1)C(C)(C)OC(=S)N2` [Compound 1, 5-(4,4-dimethyl-2-thioxo-1,4-dihydro-2H-3,1-benzoxazin-6-yl)-1-methyl-1H-pyrrole-2-carbothioamide], in data set [1], the Emax was found to be 60% and the pEC50 was 9.70. Further, in data set [2], the “Solubility in dimethylsulfoxide (DMSO)” value is on record as “sparingly soluble”.
As to `Cn1c(C(N)=S)ccc1-c1ccc2c(c1)C(C)(C)OC(=O)N2` [Compound 2, 5-(4,4-dimethyl-2-oxo-1,4-dihydro-2H-3,1-benzoxazin-6-yl)-1-methyl-1H-pyrrole-2-carbothioamide], in data set [1], the Emax was found to be 72% and the pEC50 was 8.72.
Consider `CC#C[C@]1(O)CC[C@H]2[C@@H]3CCC4=CC(=O)CCC4=C3[C@@H](c3ccc(N(C)C)cc3)C[C@@]21C` [RU486], for which the pIC50 in data set [3] was 9.99 and 9.92.
